O=C(O)c1cc(O)c(O)c(O)c1
solubility (mole fraction)
Conditions | 293.15 K | 298.15 K | 303.15 K | 308.15 K | 313.15 K | 318.15 K
in methanol | 0.0639 | 0.0672 | 0.07 | 0.0721 | 0.0755 | 0.0768
in water | 0.00101 | 0.00135 | 0.00171 | 0.00227 | 0.00289 | 0.0038
